Structures can show the parent of a compound that is named as a salt.
Molecular target: T1, AT1 receptor (Rattus norvegicus, UniProt P25095)
T1 construct: rat liver membranes; from tissue; host or cells: rat liver membranes
T1 sequence (P25095 1-359): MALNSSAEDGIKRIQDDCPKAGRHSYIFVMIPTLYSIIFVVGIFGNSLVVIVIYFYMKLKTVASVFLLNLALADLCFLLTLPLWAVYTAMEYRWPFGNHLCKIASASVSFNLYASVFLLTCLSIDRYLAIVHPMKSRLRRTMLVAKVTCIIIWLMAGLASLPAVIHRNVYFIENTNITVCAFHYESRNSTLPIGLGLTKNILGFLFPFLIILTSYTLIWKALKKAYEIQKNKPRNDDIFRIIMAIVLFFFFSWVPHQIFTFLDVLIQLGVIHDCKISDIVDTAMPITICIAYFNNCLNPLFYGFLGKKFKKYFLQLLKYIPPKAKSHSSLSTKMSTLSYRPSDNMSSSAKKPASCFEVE
Assay: [^3 H]angiotensin II binding to rat liver membranes (AT1 test)
Conditions: inhibition of [^3 H]angiotensin II binding
Procedure: The compounds of Formula I or Ia are antagonists of angiotensin II. Dudley, D. T., et al, Molecular Pharmacology 1990;38:370-377 reported the existence of 2 subclasses of angiotensin II binding sites in rabbit adrenal gland and uterus and in the rat liver which differ in their tissue distribution and affinity for various peptide and nonpeptide ligands. Thus, the compounds of Formula I or Ia were tested for their ability to inhibit [^3 H]angiotensin II binding to rat liver membranes (AT1 test) according to the methods described by Dudley, D. T., et al, Molecular Pharmacology 1990;38:370-7. […] It is well established that compounds which antagonize the effect of angiotensin II at the AT1 receptor have value for treatment of hypertension and heart failure.

SMILES	IC50 [µM]
CCCCc1ncc(/C=C2/C(=O)N(CCCC)C(=O)N2Cc2cccs2)n1Cc1ccc(C(=O)O)cc1 [Example 75, Z-4-[[2-butyl-5-[[1-butyl-2,5-dioxo-3-(2-thienylmethyl)-4-imidazolidinylidene]methyl]-1H-imidazol-1-yl]methyl]benzoic acid]	0.00064
CCCCc1ncc(/C=C2/C(=O)NC(=O)N2CCCC)n1Cc1ccc(-c2nn[nH]n2)cc1 [Example 76a, Z-1-Butyl-5-[[2-butyl-3-[[4-(1H-tetrazol-5-yl)phenyl]methyl]-3H-imidazol-4-yl]methylene]-2,4-imidazolidinedione]	0.00336
CCCCc1ncc(/C=C2\C(=O)NC(=O)N2CCCC)n1Cc1ccc(-c2nn[nH]n2)cc1 [Example 76b, E-1-Butyl-5-[[2-butyl-3-[[4-(1H-tetrazol-5-yl)phenyl]methyl]-3H-imidazol-4-yl]methylene]-2,4-imidazolidinedione]	0.00248
CCCCc1ncc(/C=C2/C(=O)N(CCCC)C(=O)N2Cc2ccc(Br)s2)n1Cc1ccc(C(=O)OC)cc1 [Example 77, Methyl Z-4-[[5-[[3-[(5-bromo-2-thienyl)methyl]-1-butyl-2,5-dioxo-4-imidazolidinylidene]methyl]-2-butyl-1H-imidazol-1-yl]methyl]benzoate monohydrochloride]	0.0178
CCCCc1ncc(/C=C2/C(=O)N(CCCC)C(=O)N2Cc2cc(Br)cs2)n1Cc1ccc(C(=O)OC)cc1 [Example 78, Methyl Z-4-[[5-[[3-[(4-bromo-2-thienyl)methyl]-1-butyl-2,5-dioxo-4-imidazolidinylidene]methyl]-2-butyl-1H-imidazol-1-yl]methyl]benzoate monohydrochloride]	0.0219
CCCCc1ncc(/C=C2/C(=O)N(CCCC)C(=O)N2CCc2cccs2)n1Cc1ccc(C(=O)OC)cc1 [Example 79, Methyl Z-4-[[2-butyl-5-[[1-butyl-2,5-dioxo-3-[2(2-thienyl)ethyl]-4-imidazolidinylidene]methyl]-1H-imidazol-1-yl]methyl]benzoate monohydrochloride]	0.0145
CCCCc1ncc(/C=C2/C(=O)N(CCCC)C(=O)N2CCc2ccsc2)n1Cc1ccc(C(=O)OC)cc1 [Example 80, Methyl Z-4-[[2-butyl-5-[[1-butyl-2,5-dioxo-3-[2-(3-thienyl)ethyl]-4-imidazolidinylidene]methyl]-1H-imidazol-1-yl]methyl]benzoate monohydrochloride]	0.0146
CCCCc1ncc(/C=C2/C(=O)N(CCCC)C(=O)N2Cc2csc(Br)c2)n1Cc1ccc(C(=O)OC)cc1 [Example 81, Methyl Z-4-[[5-[[3-[(5-bromo-3-thienyl)methyl]-1-butyl-2,5-dioxo-4-imidazolidinylidene]methyl]-2-butyl-1H-imidazol-1-yl]methyl]benzoate monohydrochloride]	0.0254
CCCCc1ncc(/C=C2\NC(=O)N(CCCC)C2=O)n1Cc1ccc(C2(C(=O)OC)CCCC2)cc1 [Example 83, Methyl Z-1-[4-[[2-butyl-5-[(1-butyl-2,5-dioxo-4-imidazolidinylidene)methyl]-1H-imidazol-1-yl]methyl]phenyl]cyclopentanecarboxylate]	> 1
CCCCc1ncc(/C=C2/C(=O)N(CCCC)C(=O)N2Cc2csc(C)n2)n1Cc1ccc(C2(C(=O)OC)CCCC2)cc1 [Example 84, Methyl Z-1-[4-[[2-butyl-5-[[1-butyl-[3(2-methyl-4-thiazoly)methyl]-2,5-dioxo-4-imidazolidinylidene]methyl]-1H-imidazol-1-yl]methyl]phenyl]cyclopentane-carboxylate monohydrochloride]	0.124
CCCCc1ncc(/C=C2/C(=O)N(CCCC)C(=O)N2Cc2csc(C)n2)n1Cc1ccc(C2(C(=O)O)CCCC2)cc1 [Example 85]	0.00186
CCCCc1ncc(/C=C2\C(=O)N(Cc3csc(C)n3)C(=O)N2CCCC)n1Cc1ccc(C(=O)OC)cc1 [Example 86, Methyl E-4-[[2-butyl-5-[[3-butyl-1-[(2-methyl-4-thiazolyl)methyl]-2,5-dioxo-4-imidazolidinylidene]methyl]-1H-imidazol-1-yl]methyl]benzoate dihydrochloride]	0.00458
CCCCc1ncc(/C=C2/C(=O)NC(=O)N2CCCC)n1Cc1ccc(C(=O)OC)cc1Cl [Example 87a, Methyl Z-4-[[2-butyl-5-[(3-butyl-2,5-dioxo-4-imidazolidinylidene)methyl]-1H-imidazol-1-yl]methyl]-3-chlorobenzoate]	0.01
CCCCc1ncc(/C=C2\C(=O)NC(=O)N2CCCC)n1Cc1ccc(C(=O)OC)cc1Cl [Example 87b]	0.00732
CCCCc1ncc(/C=C2/C(=O)NC(=O)N2CCCC)n1Cc1ccc(C2(C(=O)OC)CCCCC2)cc1 [Example 88a]	0.276
CCCCc1ncc(/C=C2\C(=O)NC(=O)N2CCCC)n1Cc1ccc(C2(C(=O)OC)CCCCC2)cc1 [Example 88b, Methyl E-1-[4-[[2-butyl-5-[[3-butyl-2,5dioxo-4-imidazolidinylidene]methyl]-1H-imidazol-1-yl]methyl]phenyl]cyclohexanecarboxylate]	0.528
CCCCc1ncc(/C=C2/C(=O)N(CC3CC3)C(=O)N2Cc2cccs2)n1Cc1ccc(C(=O)OC)cc1 [Example 89, Methyl Z-4-[[2-butyl-5-[[1-(cyclopropylmethyl)-2,5-dioxo-3-(2-thienylmethyl)-4-imidazolidinylidene]methyl]-1H-imidazol-1-yl]methyl]benzoiate monohydrochloride]	0.00259
CCCCc1ncc(/C=C2/C(=O)NC(=O)N2CCCC)n1Cc1ccc(-c2ccccc2-c2nn[nH]n2)cc1 [Example 91, Z-1-Butyl-5-[[2-butyl-3-[[2'-(1H-tetrazol-5-yl)[1,1'-biphenyl]-4-yl]methyl]-3H-imidazol-4-yl]methylene]-2,4-imidazolidinedione]	0.00137
CCCCc1ncc(/C=C2\C(=O)NC(=O)N2CCCC)n1Cc1ccc(-c2ccccc2-c2nn[nH]n2)cc1 [Example 92]	0.00272
CCCCc1ncc(/C=C2/C(=O)NC(=O)N2C)n1Cc1ccc(-c2ccccc2-c2nnn[nH]2)cc1 [Example 93, Z-5-[[2-butyl-3-[[2'-(1H-tetrazol-5-yl)[1,1 '-biphenyl]-4-yl]methyl]-3H-imidazol-4-yl]methylene]1-methyl-2,4-imidazolidinedione]	0.00551
CCCCc1ncc(/C=C2\C(=O)NC(=O)N2C)n1Cc1ccc(-c2ccccc2-c2nnn[nH]2)cc1 [Example 94, E-5-[[2-butyl-3-[[2'-(1H-tetrazol-5-yl)[1,1'-biphenyl]-4-yl]methyl]-3H-imidazol-4-yl]methylene]1-methyl-2,4-imidazolidinedione]	0.00857
CCCCc1ncc(CC2C(=O)NC(=O)N2CCCC)n1Cc1ccc(-c2ccccc2-c2nnn[nH]2)cc1 (stereo not drawn) [Example 95, 1-Butyl-5-[[2-butyl-3-[[2'-(1H-tetrazol-5-yl)[1,1'-biphenyl]-4yl]methyl]-3H-imidazol-4-yl]methyl]-2,4-imidazolidinedione]	0.00267
CCCCc1ncc(/C=C2/C(=O)NC(=O)N2CCCC)n1Cc1ccc(-c2ccccc2C(=O)OC)cc1 [Example 96a]	0.0159
CCCCc1ncc(/C=C2\C(=O)NC(=O)N2CCCC)n1Cc1ccc(-c2ccccc2C(=O)OC)cc1 [Example 96b, Methyl E 4'-[[2-butyl-5-[(3-butyl-2,5-dioxo-4-imidazolidinylidene)methyl]-1H-imidazol-1-yl]methyl][1,1'-biphenyl]-2-carboxylate]	0.00986
CCCCc1nc(Br)c(/C=C2/C(=O)NC(=O)N2CCCC)n1Cc1ccc(-c2ccccc2C(=O)OC)cc1 [Example 97a, Methyl Z-4'-[[4-bromo-2-butyl-5-[(3-butyl-2,5-dioxo-4-imidazolidinylidene)methyl]-1H-imidazol-1-yl]methyl][1,1'-biphenyl]-2-carboxylate]	0.7
CCCCc1nc(Br)c(/C=C2\C(=O)NC(=O)N2CCCC)n1Cc1ccc(-c2ccccc2C(=O)OC)cc1 [Example 97b, Methyl E-4'-[[4-bromo-2-butyl-5-[(3-butyl-2,5-dioxo-4-imidazolidinylidene)methyl]-1H-imidazol-1-yl]methyl][1,1'-biphenyl]-2-carboxylate]	0.5
CCCCc1ncc(/C=C(/C(=O)O)N(CCCC)C(=O)NCOC)n1Cc1ccc(C(=O)OC)cc1 [Example 98]	0.377
CCCCc1ncc(/C=C2/C(=O)N(CCCC)C(=O)N2Cc2nccn2Cc2ccccc2)n1Cc1ccc(C(=O)OC)cc1 [Example 99]	0.135
CCCCc1ncc(/C=C2/C(=O)N(CO)C(=O)N2Cc2csc(C)n2)n1Cc1ccc(C(=O)OC)cc1 [Example 101, Methyl Z-4-[[2-butyl-5-[[1-(hydroxymethyl)-3-[(2-methyl-4-thiazolyl)methyl]-2,5-dioxo-4-imidazolidinylidene]methyl]-1H-imidazol-1-yl]methyl]benzoatedihydrochloride]	0.0357
CCCCc1ncc(/C=C2/C(=O)N(CCCC)C(=O)N2Cc2ccc(-c3ccccc3)cc2)n1Cc1ccc(C(=O)OC)cc1 [Example 102, Methyl Z-4-[[5-[[3-[(1,1'-biphenyl)-4-ylmethyl]-1-butyl-2,5-dioxo-4-imidazolidinylidene]methyl]-2-butyl-1H-imidazol-1-yl]methyl]benzoate]	> 1
